Experimental data from PMC7279002, “Novel 3′-Substituted-1′,2′,4′-Oxadiazole Derivatives of 18βH-Glycyrrhetinic Acid and Their O-Acylated Amidoximes: Synthesis and Evaluation of Antitumor and Anti-Inflammatory Potential In Vitro and In Vivo” (International Journal of Molecular Sciences, 2020).
Like-named read-outs stand apart in the source and are kept apart here.

How the values were obtained:
[1] = test system: carrageenan-induced paw edema; assay: Carrageenan-induced paw edema; type: in vivo, ICR mice
Method: To induce paw edema, ICR mice were injected with 1% carrageenan (50 μL) on the plantar side of the right hind paw. […] Mice were sacrificed 5 h after induction of paw edema. The percent of edema weight in carrageenan-injected compound-treated groups in comparison to that in vehicle-treated control group was calculated according to the formula: % Edema=(M1−M2/M2)^compound/∑n(M1−M2/M2)^vehicle×n×100%, where M1 is the weight of the paw with carrageenan-induced edema; M2 is the weight of the intact paws; compound and vehicle correspond to the compound- and vehicle-treated phlogogen-injected mice, respectively; and n is the number of mice in the control group (n = 9). Furthermore, paw material was collected for subsequent histological analysis.
For histological analysis, the specimens of intact and edema paws from each animal were dehydrated in ascending ethanol and xylol and embedded in HistoMix paraffin (BioVitrum, Russia). Paraffin sections (5 μm) were sliced on a Microm HM 355S microtome (Thermo Fisher Scientific, Waltham, MA, USA) and stained with hematoxylin and eosin. Images were obtained using an Axiostar Plus microscope equipped with an Axiocam MRc5 digital camera (Zeiss, Oberkochen, Germany) at ×100 and ×400 magnifications.

[2] = test system: murine RAW264.7 macrophages; assay: MTT cytotoxicity assay, 24 h; type: cell-based; conditions: up to 50 µM
Method: (§1) Cells were seeded in tetra- or pentaplicates in 96-well plates at a density of 10^4 (tumor cells and […] fibroblasts) or 10^5 (RAW264.7 cells) cells per well. Cells were incubated under standard conditions for 24 h, followed by their treatment with the investigated derivatives (0.5–50 µM) or corresponding concentrations of DMSO (control) for a further 48 h (tumor cells and fibroblasts) or 24 h (RAW264.7 cells). At the end of incubation period, 10 µL of MTT solution was added to the cells (final concentration: 0.5 mg/mL) and plates were incubated for an additional 2 h under standard conditions. Then, the MTT-containing medium was aspirated and formazan crystals formed in living cells were solubilized with 100 µL of DMSO. The absorbance of each well was read at test and reference wavelengths of 570 and 620 nm, respectively, on a Multiscan RC plate reader (Thermo LabSystems, Helsinki, Finland). The IC50 values (the concentration of compounds leading to a decrease of A570 to 50% of A570^control) were calculated by extrapolation of the dose–response curves. […] A heatmap of SI values was constructed by Microsoft Excel 2010.

[3] = test system: HeLa, KB-3-1, HuTu-80, A549, B16 and hFF3 cells; assay: MTT cytotoxicity, summary over the panel of cell lines; type: cell-based
Method: (§2) On the first step of the biological evaluation of novel GA derivatives 3a-h, 4a-h, and 5a-h, we analyzed their cytotoxicity in a panel of cultured mammalian cells, including human cervical carcinoma HeLa and KB-3-1, human duodenal carcinoma HuTu-80, human lung adenocarcinoma A549, murine melanoma B16 cell lines, and nontransformed human fibroblasts hFF3. The cells were treated with derivatives for 48 h and cell viability was evaluated by 3-(4, 5-dimethylthiazol-2-yl)-2, 5-diphenyltetrazolium bromide (MTT) assay. Since the studied compounds contain two types of functional groups at position 3-acetoxy- or the hydroxyl-group, 3-acetoxy-GA 1 and GA-Me were used as references. Additionally, hierarchical clustering of cytotoxic data was carried out in order to reveal groups of compounds with similar cytotoxic profiles (Figure 2A).
as §1

[4] = test system: NO synthesis by IFN-γ-induced RAW264.7 cells; assay: NO production by IFNγ-stimulated macrophages (Griess); type: cell-based, murine; conditions: 10–50 µM, 24 h, IFNγ (20 ng/mL)
Method: (§3) RAW264.7 cells were seeded in tetraplicates in 96-well plates at a density of 10^5 cells/well and incubated under standard conditions for 24 h. The cells were treated with murine IFNγ (20 ng/mL) (Gibco, Grand Island, NY, USA) with or without (control) 3d (10–50 µM) for a further 24 h. At the end of the incubation period, the levels of TNF-α and NO in culture medium were measured using murine TNF alpha ELISA (Thermo Scientific, Frederick, MD, USA) and the Griess reagent system (Promega, Madison, WI, USA), respectively, according to manufacturers’ instructions.

[5] = test system: carrageenan-induced peritonitis; assay: Carrageenan-induced peritonitis; type: in vivo, ICR mice; conditions: i.p. 1 h before carrageenan, 4 h
Method: To study the effect of 3d on carrageenan-induced peritonitis, ICR mice were injected with 1% carrageenan (250 μL) intraperitoneally (i.p.). Compound 3d (50 mg/kg), vehicle (10% Tween-80), dexamethasone (1 mg/kg) as a reference anti-inflammatory drug, and saline buffer were administered i.p. 1 h before peritonitis induction. The healthy uninflamed group (control) was injected i.p. by saline. Mice were sacrificed 4 h after carrageenan injection and their peritoneal cavities were washed with 2 mL of heparinized cold saline buffer to obtain peritoneal cells. The peritoneal exudates were collected and the total leukocyte counts were performed with a Neubauer chamber by optical microscopy after diluting the peritoneal fluid with Turk solution (1:20). To determine the differential leukocyte counts (total 100 cells), peritoneal cells were centrifuged and placed onto slides, stained with azur–eosin by Romanovsky–Giemsa and examined by optical microscopy. The results were expressed as the number of total leukocytes (×10^5 cells/mL) and the percentages of subpopulations of neutrophils, lymphocytes, and monocytes.

[6] = test system: nontransformed human fibroblasts hFF3; assay: MTT cytotoxicity assay, 48 h; type: cell-based; conditions: Homo sapiens, HFF-3, read-out: IC50, µM Fibroblast hFF3
Method: as §2
(§4) Human cervical carcinoma HeLa and KB-3-1 cells, human duodenal carcinoma HuTu-80 cells, and human lung adenocarcinoma A549 cells were obtained from the Russian Culture Collection (Institute of Cytology, RAS, St. Petersburg, Russia). Melanoma B16-F10 (hereafter, melanoma B16) cells were obtained from the Cell Culture Bank of the Blokhin National Medical Oncology Research Center (Moscow, Russia). Nonmalignant fibroblasts hFF3 and RAW264.7 macrophages were kindly provided by Dr. Olga A. Koval (Institute of Chemical Biology and Fundamental Medicine, SB RAS, Novosibirsk, Russia) and Prof. Dmitry Kuprash (Engelhardt Institute of Molecular Biology, RAS, Moscow, Russia), respectively. The cells were cultured in DMEM (Sigma-Aldrich Inc., St. Louis, MO, USA) supplemented with 10% (v/v) heat-inactivated fetal bovine serum (FBS) (BioloT, St. Petersburg, Russia) and antibiotic–antimycotic solution (100 U/mL penicillin, 100 µg/mL streptomycin, 0.25 µg/mL amphotericin). […] The cells were incubated at 37 °C in a humidified 5% CO2-containing air atmosphere (hereafter referred to as standard conditions). GA derivatives were dissolved in DMSO (stock solutions: 10 mM) and stored at −20 °C prior to use.
as §1

[7] = test system: human cervical carcinoma KB-3-1; assay: MTT cytotoxicity assay, 48 h; type: cell-based; conditions: Homo sapiens, KB 3-1; MTT, 48 h; read-out: IC50, µM Cervix KB-3-1
Method: as §2, §4, §1

[8] = test system: human cervical carcinoma HeLa; assay: MTT cytotoxicity assay, 48 h; type: cell-based; conditions: Homo sapiens, HeLa; MTT, 48 h; read-out: IC50, µM Cervix HeLa
Method: as §2, §4, §1

[9] = test system: human lung adenocarcinoma A549; assay: MTT cytotoxicity assay, 48 h; type: cell-based; conditions: Homo sapiens, A549; MTT, 48 h
Method: as §2, §4, §1

murine melanoma B16 = assay: MTT cytotoxicity assay, 48 h; type: cell-based; conditions: Mus musculus; MTT, 48 h
Method: as §2, §4, §1

[10] = test system: human duodenal carcinoma HuTu-80; assay: MTT cytotoxicity assay, 48 h; type: cell-based; conditions: Homo sapiens, HuTu80; MTT, 48 h; read-out: IC50, µM Duodenum HuTu-80
Method: as §2, §4, §1

[11] = test system: TNFα production by IFN-γ-stimulated RAW264.7 cells; assay: TNF-α production by IFNγ-stimulated macrophages (ELISA); type: cell-based, murine; conditions: 10–50 µM, 24 h, IFNγ (20 ng/mL)
Method: as §3

In the case of `CC(=O)O[C@H]1CC[C@@]2(C)C(CC[C@]3(C)C2C(=O)C=C2[C@@H]4C[C@@](C)(C(=O)O/N=C(/N)C(C)(C)C)CC[C@]4(C)CC[C@]23C)C1(C)C` (some centres unmarked) [Compound 3d], the histology of footpads ([1]; 50 mg/kg, gastric gavage) is reported as “substantially reducing leukocyte infiltration in the dermis of the footpads”, the “decrease of the weight of edema compared with vehicle-treated mice” value ([1]; gastric gavage 1 h before carrageenan, 5 h after induction, 3d 50 mg/kg, indomethacin 20 mg/kg) is reported as 1.7 fold and the “cytotoxicity to RAW264.7 macrophages” value [2] is reported as “did not reveal cytotoxicity”. The melting point was 151.6 to 152.3 °C, the “cytotoxicity in all tested cell lines” value ([3]; all tested cell lines) was “nontoxic” and the IC50 ([3]; median over all tested cell lines, read-out: median IC50) was over 50 µM. The IC50 ([3]; read-out: IC50 values with respect to all tested cell lines) was over 50 µM, the “inhibition of NO synthesis compared with the control” value [4] was “up to 5.3 times” and the “distribution of leukocyte subpopulations in peritoneal fluid” value [5] was “restore leukocyte subtype content to a healthy level”. The “decrease of the total leukocyte number in peritoneal exudates” value ([5]; 3d 50 mg/kg, dexamethasone 1 mg/kg) was 2.7 fold, the IC50 [6] was over 50 µM and the IC50 [7] was over 50 µM. The IC50 [8] was over 50 µM, the IC50 [9] was over 50 µM and the IC50 (murine melanoma B16) was over 50 µM. For the same compound, the IC50 [10] was over 50 µM and the “suppression of TNFα production compared to the IFN-γ-stimulated control” value [11] was 2.2–9.0 times.
